Experimental data from PubChem BioAssay AID256 (DTP/NCI, 2004).
Where “and” joins values, the source holds several entries; their conditions need not be identical. Equal entries are not always repeated. Toxic doses and inconclusive results are not listed. The calls were made as follows: active = survival T/C of 150% or more; inactive = T/C below 125% in these data.

Test system: CD2F1 mice, L1210 leukemia ip, survival T/C
Experiment: NCI In Vivo Anticancer Drug Screen. Data for tumor model L1210 Leukemia (intraperitoneal) in CD2F1 (CDF1) mice
Details: higher = longer survival
Summary of the method: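 Compound-dosed mice with transplantable tumor versus matched vehicle controls; endpoint ratio T/C reported.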

[1] = endpoint: mean survival time, dose: 100.0 mg/kg/injection, schedule: Q01DX001 (ip), vehicle: saline with Tween-80
[2] = endpoint: mean survival time, dose: 200.0 mg/kg/injection, schedule: Q01DX001 (ip), vehicle: saline with Tween-80
[3] = endpoint: mean survival time, dose: 400.0 mg/kg/injection, schedule: Q01DX001 (ip), vehicle: saline with Tween-80
[4] = endpoint: mean survival time, dose: 50.0 mg/kg/injection, schedule: Q01DX009 (ip), vehicle: saline with Tween-80
[5] = endpoint: mean survival time, dose: 100.0 mg/kg/injection, schedule: Q01DX009 (ip), vehicle: saline with Tween-80
[6] = endpoint: mean survival time, dose: 100.0 mg/kg/injection, schedule: Q04DX003 (ip), vehicle: saline with Tween-80
[7] = endpoint: mean survival time, dose: 200.0 mg/kg/injection, schedule: Q04DX003 (ip), vehicle: saline with Tween-80
[8] = endpoint: mean survival time, dose: 400.0 mg/kg/injection, schedule: Q04DX003 (ip), vehicle: saline with Tween-80
[9] = endpoint: mean survival time, dose: 12.5 mg/kg/injection, schedule: Q01DX009 (ip), vehicle: saline
[10] = endpoint: mean survival time, dose: 25.0 mg/kg/injection, schedule: Q01DX009 (ip), vehicle: saline
[11] = endpoint: mean survival time, dose: 6.25 mg/kg/injection, schedule: Q01DX009 (ip), vehicle: saline
[12] = endpoint: mean survival time, dose: 100.0 mg/kg/injection, schedule: Q01DX001 (ip), vehicle: saline
[13] = endpoint: mean survival time, dose: 200.0 mg/kg/injection, schedule: Q01DX001 (ip), vehicle: saline

Measured: T/C

O=c1[nH]c(/C=C/c2ccccc2)c([N+](=O)[O-])c(=O)[nH]1
inactive: [1] 95 % of control | [2] 90 % of control | [3] 90 % of control

Cn1c(CC(O)(C(F)(F)F)C(F)(F)F)c(C(O)(C(F)(F)F)C(F)(F)F)c2ccccc21
inactive: endpoint: mean survival time, dose: 5.0 mg/kg/injection, schedule: Q04DX003 (ip), vehicle: saline with Tween-80 101 % of control | endpoint: mean survival time, dose: 10.0 mg/kg/injection, schedule: Q04DX003 (ip), vehicle: saline with Tween-80 90 % of control | endpoint: mean survival time, dose: 20.0 mg/kg/injection, schedule: Q04DX003 (ip), vehicle: saline with Tween-80 90 % of control

O=[N+]([O-])c1cccc(SNc2cccc(Cl)c2)c1
inactive: endpoint: mean survival time, dose: 25.0 mg/kg/injection, schedule: Q01DX009 (ip), vehicle: saline with Tween-80 102 % of control | [4] 90 % of control | [5] 94 % of control

CC1=Nc2ccccc2N=C(C)C1
inactive: endpoint: mean survival time, dose: 50.0 mg/kg/injection, schedule: Q01DX009 (ip), vehicle: acetone 101 % of control | endpoint: mean survival time, dose: 100.0 mg/kg/injection, schedule: Q01DX009 (ip), vehicle: acetone 98 % of control

CC(=O)Nc1cccc2ccc3c4ccccc4ccc3c12
inactive: [6] 86 % of control | [7] 89 % of control | [8] 98 % of control

COc1ccc(/C=C/c2cc[n+](C)cc2)cc1
inactive: [9] 102 % of control | [10] 95 % of control

Nc1ccc(C(=O)O)c([N+](=O)[O-])c1
inactive: endpoint: mean survival time, dose: 100.0 mg/kg/injection, schedule: Q01DX001 (ip), vehicle: Klucel (hydroxypropylcellulose) (HPC) 96 % of control | endpoint: mean survival time, dose: 200.0 mg/kg/injection, schedule: Q01DX001 (ip), vehicle: Klucel (hydroxypropylcellulose) (HPC) 100 % of control | endpoint: mean survival time, dose: 400.0 mg/kg/injection, schedule: Q01DX001 (ip), vehicle: Klucel (hydroxypropylcellulose) (HPC) 100 % of control

COc1cc2c(cc1OC)C1CC(O)C3CCCCC3N1CC2 (stereo not drawn)
inactive: [6] 93 % of control | [7] 93 % of control

C/C(=N\O)c1ccccn1
inactive: endpoint: mean survival time, dose: 25.0 mg/kg/injection, schedule: Q01DX009 (ip), vehicle: Klucel (hydroxypropylcellulose) (HPC) 95 % of control | endpoint: mean survival time, dose: 50.0 mg/kg/injection, schedule: Q01DX009 (ip), vehicle: Klucel (hydroxypropylcellulose) (HPC) 100 % of control | endpoint: mean survival time, dose: 100.0 mg/kg/injection, schedule: Q01DX009 (ip), vehicle: Klucel (hydroxypropylcellulose) (HPC) 90 % of control | endpoint: mean survival time, dose: 200.0 mg/kg/injection, schedule: Q01DX009 (ip), vehicle: Klucel (hydroxypropylcellulose) (HPC) 95 % of control | endpoint: mean survival time, dose: 400.0 mg/kg/injection, schedule: Q01DX009 (ip), vehicle: Klucel (hydroxypropylcellulose) (HPC) 105 % of control

Cc1cc2c3ccc(C)[n+](C)c3ccc2n1C
inactive: endpoint: mean survival time, dose: 1.19 mg/kg/injection, schedule: Q01DX001 (ip), vehicle: saline 103 % of control | endpoint: mean survival time, dose: 2.37 mg/kg/injection, schedule: Q01DX001 (ip), vehicle: saline 109 % of control | endpoint: mean survival time, dose: 4.75 mg/kg/injection, schedule: Q01DX001 (ip), vehicle: saline 97 % of control

COc1ccccc1NC(=O)Oc1ccc(-c2ccccc2)cc1Cl
inactive: endpoint: mean survival time, dose: 100.0 mg/kg/injection, schedule: Q04DX002 (ip), vehicle: saline with Tween-80 100 % of control | endpoint: mean survival time, dose: 200.0 mg/kg/injection, schedule: Q04DX002 (ip), vehicle: saline with Tween-80 103 % of control | endpoint: mean survival time, dose: 400.0 mg/kg/injection, schedule: Q04DX002 (ip), vehicle: saline with Tween-80 88 % of control

CC(=O)NC(CCC(=O)O)C(=O)O.[NH-]C1CCCCC1[NH-].[Pt+2] (stereo not drawn)
inactive: endpoint: median survival time, dose: 6.25 mg/kg/injection, schedule: Q04DX003 (ip), vehicle: saline 97 % of control | endpoint: median survival time, dose: 12.5 mg/kg/injection, schedule: Q04DX003 (ip), vehicle: saline 110 % of control | endpoint: median survival time, dose: 25.0 mg/kg/injection, schedule: Q04DX003 (ip), vehicle: saline 102 % of control | endpoint: median survival time, dose: 50.0 mg/kg/injection, schedule: Q04DX003 (ip), vehicle: saline 97 % of control | endpoint: median survival time, dose: 100.0 mg/kg/injection, schedule: Q04DX003 (ip), vehicle: saline 112 % of control

c1ccc(CSc2ncnc3nc[nH]c23)nc1
inactive: endpoint: mean survival time, dose: 133.0 mg/kg/injection, schedule: Q04DX003 (ip), vehicle: saline with Tween-80 117 % of control | endpoint: mean survival time, dose: 300.0 mg/kg/injection, schedule: Q04DX003 (ip), vehicle: saline with Tween-80 102 % of control

OCCOCCN1CCN(CCCN2c3ccccc3Sc3ccc(C(F)(F)F)cc32)CC1
inactive: [11] 121 % of control

O=c1[nH]c(-c2ccccc2)nc(-c2ccccc2)c1Cc1cc2c(cc1O)OCC2
inactive: [12] 103 % of control | [13] 92 % of control | endpoint: mean survival time, dose: 400.0 mg/kg/injection, schedule: Q01DX001 (ip), vehicle: saline 92 % of control

Cc1ccc(NC(=O)OCCOc2ccccc2Cl)cc1C
inactive: [4] 96 % of control | [5] 93 % of control | endpoint: mean survival time, dose: 200.0 mg/kg/injection, schedule: Q01DX009 (ip), vehicle: saline with Tween-80 93 % of control

CN(C)c1ccc(N=C2CC(=Nc3ccc(N(C)C)cc3)c3ccccc3C2=O)cc1
inactive: endpoint: mean survival time, dose: 100.0 mg/kg/injection, schedule: Q04DX003 (ip), vehicle: saline 104 % of control | endpoint: mean survival time, dose: 200.0 mg/kg/injection, schedule: Q04DX003 (ip), vehicle: saline 96 % of control | endpoint: mean survival time, dose: 400.0 mg/kg/injection, schedule: Q04DX003 (ip), vehicle: saline 101 % of control

O=C(Nn1c(=O)c(=O)oc2ccccc21)C(F)(F)F
inactive: [6] 96 % of control | [7] 94 % of control

CCN(CC)Cc1cc(Nc2c3ccc(Cl)cc3nc3ccc(OC)nc23)ccc1O
inactive: endpoint: mean survival time, dose: 25.0 mg/kg/injection, schedule: Q01DX001 (ip), vehicle: saline with Tween-80 94 % of control | endpoint: mean survival time, dose: 50.0 mg/kg/injection, schedule: Q01DX001 (ip), vehicle: saline with Tween-80 94 % of control | [1] 90 % of control | [2] 95 % of control | [3] 91 % of control

COc1cc2c(cc1O)N=C[C@@H]1CCC(O)N1C2=O (mixture of isomers)
inactive: endpoint: mean survival time, dose: 0.5 mg/kg/injection, schedule: Q01DX009 (ip), vehicle: saline 108 % of control | endpoint: mean survival time, dose: 1.0 mg/kg/injection, schedule: Q01DX009 (ip), vehicle: saline 102 % of control and 108 % of control | endpoint: mean survival time, dose: 2.0 mg/kg/injection, schedule: Q01DX009 (ip), vehicle: saline 118 % of control and 111 % of control | endpoint: mean survival time, dose: 4.0 mg/kg/injection, schedule: Q01DX009 (ip), vehicle: saline 113 % of control and 117 % of control | endpoint: mean survival time, dose: 8.0 mg/kg/injection, schedule: Q01DX009 (ip), vehicle: saline 106 % of control and 107 % of control | endpoint: median survival time, dose: 0.1 mg/kg/injection, schedule: Q01DX005 (ip), vehicle: saline 102 % of control | endpoint: median survival time, dose: 0.2 mg/kg/injection, schedule: Q01DX005 (ip), vehicle: saline 102 % of control | endpoint: median survival time, dose: 0.4 mg/kg/injection, schedule: Q01DX005 (ip), vehicle: saline 102 % of control | endpoint: median survival time, dose: 0.8 mg/kg/injection, schedule: Q01DX005 (ip), vehicle: saline 102 % of control | endpoint: median survival time, dose: 1.6 mg/kg/injection, schedule: Q01DX005 (ip), vehicle: saline 107 % of control

Fc1ccc(NC(=S)S)cc1
inactive: [11] 86 % of control | [9] 114 % of control | [10] 93 % of control

Cc1cc(I)cs1
inactive: [12] 108 % of control | [13] 102 % of control

CC(=O)Oc1ccc(/C=C2\CCOC2=O)cc1
inactive: endpoint: mean survival time, dose: 7.82 mg/kg/injection, schedule: Q01DX005 (ip), vehicle: Klucel (hydroxypropylcellulose) (HPC) 112 % of control | endpoint: mean survival time, dose: 15.63 mg/kg/injection, schedule: Q01DX005 (ip), vehicle: Klucel (hydroxypropylcellulose) (HPC) 101 % of control | endpoint: mean survival time, dose: 31.25 mg/kg/injection, schedule: Q01DX005 (ip), vehicle: Klucel (hydroxypropylcellulose) (HPC) 106 % of control | endpoint: mean survival time, dose: 62.5 mg/kg/injection, schedule: Q01DX005 (ip), vehicle: Klucel (hydroxypropylcellulose) (HPC) 107 % of control | endpoint: mean survival time, dose: 125.0 mg/kg/injection, schedule: Q01DX005 (ip), vehicle: Klucel (hydroxypropylcellulose) (HPC) 109 % of control | endpoint: mean survival time, dose: 250.0 mg/kg/injection, schedule: Q01DX005 (ip), vehicle: Klucel (hydroxypropylcellulose) (HPC) 109 % of control

Cc1ccc(NC(=O)OCCSCCOC(=O)Nc2ccc(C)cc2)cc1
inactive: endpoint: mean survival time, dose: 100.0 mg/kg/injection, schedule: Q04DX003 (ip), vehicle: other 93 % of control | endpoint: mean survival time, dose: 200.0 mg/kg/injection, schedule: Q04DX003 (ip), vehicle: other 96 % of control | endpoint: mean survival time, dose: 400.0 mg/kg/injection, schedule: Q04DX003 (ip), vehicle: other 93 % of control

CC(C)(C)C(=O)CC(=O)C(C)(C)C
inactive: [6] 95 % of control and 94 % of control | [7] 91 % of control and 100 % of control | [8] 95 % of control
